US11401270B2, “Alcoxyamino derivatives for treating pain and pain related conditions” (ESTEVE PHARMACEUTICALS, S.A., priority 2017, dated 2022)
Like-named read-outs stand apart in the source and are kept apart here.

Assays:
[1] = biological target: Human α2δ-1 subunit of Cav2.2 calcium channel (Homo sapiens (Human), UniProt P54289); assay: Binding Assay to Human α2δ-1 Subunit of Cav2.2 Calcium Channel; details: human α2δ-1 enriched membranes, 15 nM [3H]-Gabapentin, read-out: Ki(nM) alpha2delta Hum
Outline: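 Radioligand filtration binding at the α2δ-1 subunit, test compound at five concentrations; nonspecific binding defined with 10 μM pregabalin. Incubated 60 min at 27 °C, stopped by GF/C filtration (0.5% PEI presoaked) with ice-cold 50 mM Tris-HCl pH 7.4 washes; bound radioactivity counted by scintillation.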

[2] = biological target: Human norepinephrine transporter (NET) (Homo sapiens (Human), UniProt P23975); assay: Binding Assay to Human Norepinephrine Transporter (NET); details: Table 2, dual compounds; human NET enriched membranes, 5 nM [3H]-Nisoxetin; read-out: Ki(nM) NET Hum
Experimental: Binding Assay to Human Norepinephrine Transporter (NET).
Human norepinephrine transporter (NET) enriched membranes (5 μg) were incubated with 5 nM of radiolabeled [3H]-Nisoxetin in assay buffer containing 50 mM Tris-HCl, 120 mM NaCl, 5 mM KCl, pH 7.4.
NSB (non specific binding) was measured by adding 10 μM desipramine. The binding of the test compound was measured in five different concentrations. After 60 min incubation at 4° C., binding reaction was terminated by filtering through Multiscreen GF/C (Millipore) presoaked in 0.5% polyethyleneimine in Vacuum Manifold Station, followed by 3 washes with ice-cold filtration buffer containing 50 mM Tris-HCl, 0.9% NaCl, pH 7.4.
Filter plates were dried at 60° C. for 1 hour and 30 μl of scintillation cocktail were added to each well before radioactivity reading.

Chain of Human norepinephrine transporter (NET) (P23975 whole entry): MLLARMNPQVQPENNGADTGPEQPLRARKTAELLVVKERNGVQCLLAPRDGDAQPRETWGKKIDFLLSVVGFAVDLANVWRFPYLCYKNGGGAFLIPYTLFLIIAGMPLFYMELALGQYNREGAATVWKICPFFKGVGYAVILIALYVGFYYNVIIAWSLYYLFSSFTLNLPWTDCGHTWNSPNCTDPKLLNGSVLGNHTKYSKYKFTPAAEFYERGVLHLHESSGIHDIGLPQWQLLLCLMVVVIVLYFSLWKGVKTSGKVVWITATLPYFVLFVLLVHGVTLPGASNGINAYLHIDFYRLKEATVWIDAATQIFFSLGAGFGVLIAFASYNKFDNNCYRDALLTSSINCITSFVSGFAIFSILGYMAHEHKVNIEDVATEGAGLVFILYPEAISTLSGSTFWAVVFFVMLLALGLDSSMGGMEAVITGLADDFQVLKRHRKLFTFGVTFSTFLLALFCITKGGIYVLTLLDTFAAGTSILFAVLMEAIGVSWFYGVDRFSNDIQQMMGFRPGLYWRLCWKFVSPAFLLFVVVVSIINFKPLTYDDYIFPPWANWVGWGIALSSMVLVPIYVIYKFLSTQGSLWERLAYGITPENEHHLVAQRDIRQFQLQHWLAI
Chain of Human α2δ-1 subunit of Cav2.2 calcium channel (P54289 25-1103): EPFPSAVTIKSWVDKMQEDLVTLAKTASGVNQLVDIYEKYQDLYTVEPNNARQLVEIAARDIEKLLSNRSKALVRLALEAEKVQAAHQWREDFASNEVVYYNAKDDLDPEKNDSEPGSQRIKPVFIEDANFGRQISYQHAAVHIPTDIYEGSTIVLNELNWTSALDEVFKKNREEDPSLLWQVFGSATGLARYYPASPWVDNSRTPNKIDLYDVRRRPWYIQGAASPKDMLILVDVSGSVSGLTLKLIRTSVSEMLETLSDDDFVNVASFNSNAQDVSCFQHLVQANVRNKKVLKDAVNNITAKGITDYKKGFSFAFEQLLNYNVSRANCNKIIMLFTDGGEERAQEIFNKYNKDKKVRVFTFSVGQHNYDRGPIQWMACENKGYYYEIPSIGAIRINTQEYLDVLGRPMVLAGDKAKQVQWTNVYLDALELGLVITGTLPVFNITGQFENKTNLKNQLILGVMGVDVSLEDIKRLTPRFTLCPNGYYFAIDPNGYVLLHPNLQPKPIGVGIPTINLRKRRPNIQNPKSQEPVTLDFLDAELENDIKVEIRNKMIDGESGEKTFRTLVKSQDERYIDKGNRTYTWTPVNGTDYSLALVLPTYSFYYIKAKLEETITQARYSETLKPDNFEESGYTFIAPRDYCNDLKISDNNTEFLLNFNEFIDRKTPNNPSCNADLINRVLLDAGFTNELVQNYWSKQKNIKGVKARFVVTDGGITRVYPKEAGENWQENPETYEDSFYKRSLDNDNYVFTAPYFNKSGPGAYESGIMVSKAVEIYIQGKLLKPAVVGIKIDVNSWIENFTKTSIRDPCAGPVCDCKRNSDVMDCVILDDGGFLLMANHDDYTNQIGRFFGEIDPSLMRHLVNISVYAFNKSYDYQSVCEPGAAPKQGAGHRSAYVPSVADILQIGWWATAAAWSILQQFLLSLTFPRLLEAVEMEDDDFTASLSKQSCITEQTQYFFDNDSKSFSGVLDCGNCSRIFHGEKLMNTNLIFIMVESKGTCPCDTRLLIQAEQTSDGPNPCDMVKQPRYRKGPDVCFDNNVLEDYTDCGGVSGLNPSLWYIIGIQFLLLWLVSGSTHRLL

Ki ([1]; Table 1) [nM] | Ki ([1]; Table 2, dual compounds) [nM] | Ki [2] [nM] | Compound
< 100 | < 100 | < 100 | CNCC[C@H](Oc1ccc(CN2CCN(C)c3ncccc3C2=O)c(F)c1)c1cccc(F)c1 [Example 136, (S)-4-(2-fluoro-4-(1-(3-fluorophenyl)-3-(methylamino)propoxy)benzyl)-1-methyl-1,2,3,4-tetrahydro-5H-pyrido[2,3-e][1,4]diazepin-5-one]
100 to 500 | 100 to 500 | < 100 | CNCC[C@H](Oc1ccc(CN2CCN(C)c3nc(N)ccc3C2=O)c(F)c1)c1ccccc1 [Example 137, (S)-8-amino-4-(2-fluoro-4-(3-(methylamino)-1-phenylpropoxy)benzyl)-1-methyl-1,2,3,4-tetrahydro-5H-pyrido[2,3-e][1,4]diazepin-5-one]
< 100 | < 100 | < 100 | CNCC[C@H](Oc1ccc(CN2CCN(C)c3nc(N)ccc3C2=O)c(Cl)c1)c1ccccc1 [Example 138, (S)-8-amino-4-(2-chloro-4-(3-(methylamino)-1-phenylpropoxy)benzyl)-1-methyl-1,2,3,4-tetrahydro-5H-pyrido[2,3-e][1,4]diazepin-5-one]
100 to 500 | 100 to 500 | < 100 | CNCC[C@H](Oc1ccc(CN2CCCn3nc(C)cc3C2=O)c(F)c1)c1ccccc1 [Example 139, (S)-5-(2-fluoro-4-(3-(methylamino)-1-phenylpropoxy)benzyl)-2-methyl-5,6,7,8-tetrahydro-4H-pyrazolo[1,5-a][1,4]diazepin-4-one]
> 3000 | > 3000 | < 100 | CNCC[C@H](Oc1ccc(CN2CCN(C)c3nc(O)ccc3C2=O)c(F)c1)c1ccccc1 [Example 142, (S)-4-(2-fluoro-4-(3-(methylamino)-1-phenylpropoxy)benzyl)-8-hydroxy-1-methyl-1,2,3,4-tetrahydro-5H-pyrido[2,3-e][1,4]diazepin-5-one]
100 to 500 | 100 to 500 | < 100 | CNCC[C@H](Oc1ccc(CN2CCCn3nc(OC)cc3C2=O)c(F)c1)c1ccccc1 [Example 144, (S)-5-(2-fluoro-4-(3-(methylamino)-1-phenylpropoxy)benzyl)-2-methoxy-5,6,7,8-tetrahydro-4H-pyrazolo[1,5-a][1,4]diazepin-4-one]
500 to 3000 | 500 to 3000 | < 100 | CNCC[C@H](Oc1ccc(CN2CCCn3nccc3C2=O)c(F)c1)c1ccccc1 [Example 145, (S)-5-(2-fluoro-4-(3-(methylamino)-1-phenylpropoxy)benzyl)-5,6,7,8-tetrahydro-4H-pyrazolo[1,5-a][1,4]diazepin-4-one]
< 100 | < 100 | < 100 | CNCC[C@H](Oc1ccc(CN2CCN(C)c3ncccc3C2=O)c(Cl)c1)c1cccc(F)c1 [Example 149, (S)-4-(2-chloro-4-(1-(3-fluorophenyl)-3-(methylamino)propoxy)benzyl)-1-methyl-1,2,3,4-tetrahydro-5H-pyrido[2,3-e][1,4]diazepin-5-one]
< 100 | < 100 | < 100 | CNCC[C@H](Oc1ccc(CN2CCN(C)c3nc(N)ccc3C2=O)c(F)c1)c1cccc(F)c1 [Example 153, (S)-8-amino-4-(2-fluoro-4-(1-(3-fluorophenyl)-3-(methylamino)propoxy)benzyl)-1-methyl-1,2,3,4-tetrahydro-5H-pyrido[2,3-e][1,4]diazepin-5-one]

More lines, now with the values behind:

Compound | Ki ([1]; Table 1) [nM] | Ki ([1]; Table 2, dual compounds) [nM] | Ki [2] [nM]
CNCC[C@H](Oc1ccc(CN2CCCn3nc(OC)cc3C2=O)c(C)c1)c1cccs1 [Example 134, (S)-2-methoxy-5-(2-methyl-4-(3-(methylamino)-1-(thiophen-2-yl)propoxy)benzyl)-5,6,7,8-tetrahydro-4H-pyrazolo[1,5-a][1,4]diazepin-4-one] | < 100 | < 100 | < 100
CNCC[C@H](Oc1ccc(CN2CCN(C)c3cnc(OC)cc3C2=O)c(F)c1)c1ccccc1 [Example 140, (S)-4-(2-fluoro-4-(3-(methylamino)-1-phenylpropoxy)benzyl)-7-methoxy-1-methyl-1,2,3,4-tetrahydro-5H-pyrido[3,4-e][1,4]diazepin-5-one] | < 100 | < 100 | < 100
CNCC[C@H](Oc1ccc(CN2CCN(C)c3ncccc3C2=O)c(Cl)c1)c1ccccc1 [Example 141, (S)-(2-chloro-4-(3-(methylamino)-1-phenylpropoxy)benzyl)-1-methyl-1,2,3,4-telrahydro-5H-pyrido[2,3-e][1,4]diazepin-5-one] | < 100 | < 100 | < 100
CNCC[C@H](Oc1ccc(CN2CCN(C)c3ncc(F)cc3C2=O)c(F)c1)c1ccccc1 [Example 143, (S)-7-fluoro-4-(2-fluoro-4-(3-(methylamino)-1-phenylpropoxy)benzyl)-1-methyl-1,2,3,4-tetrahydro-5H-pyrido[2,3-e][1,4]diazepin-5-one] | 100 to 500 | 100 to 500 | < 100
CCNc1ccc2c(n1)N(C)CCN(Cc1ccc(O[C@@H](CCNC)c3cccc(F)c3)cc1F)C2=O [Example 148, (S)-8-(ethylamino)-4-(2-fluoro-4-(1-(3-fluorophenyl)-3-(methylamino)propoxy)benzyl)-1-methyl-1,2,3,4-tetrahydro-5H-pyrido[2,3-e][1,4]diazepin-5-one] | 100 to 500 | 100 to 500 | < 100
CNCC[C@H](Oc1ccc(CN2CCN(C)c3ncccc3C2=O)cc1)c1cccc(F)c1 [Example 151, (S)-4-(4-(1-(3-fluorophenyl)-3-(methylamjno)propoxy)benzyl)-1-methyl-1,2,3,4-tetrahydro-5H-pyrido[2,3-e][1,4]diazepin-5-one] | 100 to 500 | 100 to 500 | < 100
CNCC[C@H](Oc1ccc(CN2CCN(C)c3ncccc3C2=O)c(F)c1)c1ccccc1F [Example 152, (S)-4-(2-fluoro-4-(1-(2-fluorophenyl)-3-(methylamino)propoxy)benzyl)-1-methyl-1,2,3,4-tetrahydro-5H-pyrido[2,3-e][1,4]diazepin-5-one] | < 100 | < 100 | < 100
